Laboratory results published in PubChem BioAssay AID504487 (Sanford-Burnham Center for Chemical Genomics, 2011).
The source made the active and inactive calls.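 The calls were made as follows: active = IC50 at or below 20 µM; inactive = the rest.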

test system: 697 B-cell NF-kB luciferase reporter, PMA/ionomycin, 16 h; experiment: NF-kB reporter suppression in 697 B cells – T-cell screen hits, luminescence, SAR follow-up (AID 504487)

IC50, inactive:
CCCC(=O)NC(c1ccc(Cl)cc1)c1ccc2cccnc2c1O (stereo not drawn) > 79 µM, COc1ccc(C(NC(C)=O)c2ccc3cccnc3c2O)cc1 (stereo not drawn) > 79 µM, COc1ccc(C(NC(=O)c2ccccc2)c2ccc3cccnc3c2O)cc1 (stereo not drawn) > 79 µM, CCCC(=O)NC(c1ccccc1OC)c1ccc2cccnc2c1O (stereo not drawn) > 79 µM, COc1cccc(C(=O)Nc2ccc3[nH]c(-c4cccc(OC)c4)cc(=O)c3c2)c1 > 79 µM, CCCC(=O)NC(c1ccccc1)c1ccc2cccnc2c1O (stereo not drawn) > 79 µM, CCCC(=O)NC(c1ccc(C)cc1)c1ccc2cccnc2c1O (stereo not drawn) > 79 µM, CCCC(=O)NC(c1ccc(OC)cc1)c1ccc2cccnc2c1O (stereo not drawn) > 79 µM
